Measurements from patent EP2308883A1, “New derivatives of thieno[2,3-b]pyridine and 5,6,7,8 tetrahydrothieno[2,3 b]quinoline in particular useful in the treatment of malaria” (priority 2009, dated 2011).
pIC50: −log10 of the molar value.

How the values were obtained:
Experiment in all cases: Species specificity: recombinant tagged GSK-3 orthologue kinase assay
GSK-3 [1] = biological target: T1, GSK-3 (Leishmania major, UniProt Q4QE15); type: biochemical, Leishmania majo
T1 construct: made in house
T1 sequence (Q4QE15 entry or part of it): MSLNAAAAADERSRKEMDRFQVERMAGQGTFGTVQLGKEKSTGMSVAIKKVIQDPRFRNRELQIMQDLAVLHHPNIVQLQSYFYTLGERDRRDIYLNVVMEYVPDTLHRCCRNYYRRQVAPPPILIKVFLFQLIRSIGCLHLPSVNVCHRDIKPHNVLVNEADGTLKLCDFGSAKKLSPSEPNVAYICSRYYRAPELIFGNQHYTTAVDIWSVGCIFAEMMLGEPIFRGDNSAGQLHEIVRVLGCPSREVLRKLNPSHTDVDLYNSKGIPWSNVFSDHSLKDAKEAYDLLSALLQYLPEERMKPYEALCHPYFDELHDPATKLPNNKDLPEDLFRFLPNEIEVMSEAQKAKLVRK
Description: (§1) Given the strong conservation of GSK-3 across evolution and the surprising selectivity of the compounds according to the present invention towards PfGSK-3 versus mammalian GSK-3, a selection of 12 GSK-3 orthologues of various species chosen on the "tree of life" analyzed. The species belong to the Apicomplexa (P. falciparum, P. vivax, P. knowlesi and P. berghei (Gardner, M.J. et al. Genome sequence of the human malaria parasite Plasmodium falciparum. Nature 419, 498-511 (2002); Carlton, J.M. et al. Comparative genomics of the neglected human malaria parasite Plasmodium vivax. Nature 455, 799-803 (2008); Pain, A. et al. The genome of the simian and human malaria parasite Plasmodium knowlesi. Nature 455, 799-803 (2008).). Toxoplasma gondii (Qin, C.L., Tang, J. and Kim, K. Cloning and in vitro expression of TPK3, a Toxoplasma gondii homologue of shaggy/glycogen synthase kinase-3 kinases. Mol. Biochem. Parasitol. 93, 273-283 (1998)), Cryptosporidium parvum.
(§2) Following PCR amplification from cDNA libraries or direct synthesis based on databases sequences, the GSK-3 genes were inserted in appropriate expression vectors and recombinant, tagged kinases were expressed, affinity purified and assayed in the presence of up to 10-100µM of each compound of formula (I) according to the present invention and a selection of the PfGSK-3 inhibitors.

GSK-3 [2] = biological target: T2, GSK-3 (Trypanosoma cruzi, UniProt Q4E1X0); type: biochemical; settings: read-out: IC50 Trypanopsoma cruzi; calculated from dose-response curves; -(100) taken as no inhibition at 100
T2 sequence (Q4E1X0 1-353): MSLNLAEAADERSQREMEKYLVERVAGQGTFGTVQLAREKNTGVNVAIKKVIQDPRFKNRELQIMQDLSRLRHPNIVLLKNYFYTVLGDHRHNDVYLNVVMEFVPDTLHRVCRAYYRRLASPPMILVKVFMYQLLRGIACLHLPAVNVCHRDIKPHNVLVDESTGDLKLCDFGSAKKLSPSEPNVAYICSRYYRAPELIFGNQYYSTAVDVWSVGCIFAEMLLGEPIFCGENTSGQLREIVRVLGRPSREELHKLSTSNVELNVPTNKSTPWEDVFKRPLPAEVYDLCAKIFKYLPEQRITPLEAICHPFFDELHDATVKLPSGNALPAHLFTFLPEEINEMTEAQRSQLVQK

GSK-3 α/β = type: biochemical; settings: calculated from dose-response curves; -(100) taken as no inhibition at 100; read-out: IC50 Sus scrofa (GSK-3 α/β)
Description: as §1, §2

GSK-3 [3] = biological target: T3, GSK-3 (Plasmodium falciparum, UniProt O77344); type: biochemical
T3 construct: made in house
T3 sequence (O77344 entry or part of it): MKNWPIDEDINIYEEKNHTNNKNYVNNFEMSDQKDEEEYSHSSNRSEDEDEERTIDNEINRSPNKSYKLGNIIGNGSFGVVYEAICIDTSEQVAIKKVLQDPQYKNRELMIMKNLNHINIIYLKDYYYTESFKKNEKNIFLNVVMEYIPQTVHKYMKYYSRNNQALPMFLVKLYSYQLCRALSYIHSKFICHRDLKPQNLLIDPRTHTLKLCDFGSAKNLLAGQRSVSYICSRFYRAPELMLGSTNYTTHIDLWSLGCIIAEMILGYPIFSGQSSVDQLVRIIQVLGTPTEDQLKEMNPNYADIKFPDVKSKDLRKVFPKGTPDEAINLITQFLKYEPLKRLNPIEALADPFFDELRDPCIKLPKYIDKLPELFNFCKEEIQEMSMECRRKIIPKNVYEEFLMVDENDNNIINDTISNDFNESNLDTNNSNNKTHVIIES
Description: as §1, §2

GSK-3 α = biological target: T4, GSK-3 α (Homo sapiens, UniProt P49840); type: biochemical; settings: calculated from dose-response curves; -(100) taken as no inhibition at 100
T4 construct: made in house
T4 sequence (P49840 whole entry): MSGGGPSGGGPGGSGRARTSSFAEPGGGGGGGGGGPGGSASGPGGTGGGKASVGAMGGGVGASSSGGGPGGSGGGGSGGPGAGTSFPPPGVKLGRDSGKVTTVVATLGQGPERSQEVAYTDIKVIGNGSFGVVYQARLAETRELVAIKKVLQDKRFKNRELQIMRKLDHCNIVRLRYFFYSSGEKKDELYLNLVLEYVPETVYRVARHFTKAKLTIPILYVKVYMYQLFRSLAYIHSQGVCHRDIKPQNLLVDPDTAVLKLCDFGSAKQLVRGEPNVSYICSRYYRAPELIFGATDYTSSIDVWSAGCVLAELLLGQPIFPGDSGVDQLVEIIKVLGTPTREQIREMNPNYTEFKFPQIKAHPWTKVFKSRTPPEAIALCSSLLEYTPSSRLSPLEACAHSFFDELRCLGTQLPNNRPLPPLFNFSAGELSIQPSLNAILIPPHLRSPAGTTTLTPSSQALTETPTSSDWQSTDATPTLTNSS
Description: as §1, §2

GSK-3 [4] = biological target: T5, GSK-3 (Dictyostelium discoideum, UniProt P51136); type: biochemical
T5 construct: made in house
T5 sequence (P51136 whole entry): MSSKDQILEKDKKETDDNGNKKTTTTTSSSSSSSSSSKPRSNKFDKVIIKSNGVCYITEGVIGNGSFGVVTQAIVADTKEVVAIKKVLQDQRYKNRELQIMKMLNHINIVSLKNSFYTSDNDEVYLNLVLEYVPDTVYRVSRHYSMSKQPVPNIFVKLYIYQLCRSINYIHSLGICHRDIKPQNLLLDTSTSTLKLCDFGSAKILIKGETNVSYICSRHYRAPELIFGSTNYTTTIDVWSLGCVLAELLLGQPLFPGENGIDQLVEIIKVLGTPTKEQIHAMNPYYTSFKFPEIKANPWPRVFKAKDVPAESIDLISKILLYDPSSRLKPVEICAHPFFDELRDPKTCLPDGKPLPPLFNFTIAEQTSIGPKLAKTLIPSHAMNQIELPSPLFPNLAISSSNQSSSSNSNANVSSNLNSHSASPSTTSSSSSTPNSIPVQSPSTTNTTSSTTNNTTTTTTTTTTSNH
Description: as §1, §2

GSK-3 [5] = biological target: T6, GSK-3 (Toxoplasma gondii, UniProt O44002); type: biochemical, Toxaplasma grondii
T6 sequence (O44002 1-394): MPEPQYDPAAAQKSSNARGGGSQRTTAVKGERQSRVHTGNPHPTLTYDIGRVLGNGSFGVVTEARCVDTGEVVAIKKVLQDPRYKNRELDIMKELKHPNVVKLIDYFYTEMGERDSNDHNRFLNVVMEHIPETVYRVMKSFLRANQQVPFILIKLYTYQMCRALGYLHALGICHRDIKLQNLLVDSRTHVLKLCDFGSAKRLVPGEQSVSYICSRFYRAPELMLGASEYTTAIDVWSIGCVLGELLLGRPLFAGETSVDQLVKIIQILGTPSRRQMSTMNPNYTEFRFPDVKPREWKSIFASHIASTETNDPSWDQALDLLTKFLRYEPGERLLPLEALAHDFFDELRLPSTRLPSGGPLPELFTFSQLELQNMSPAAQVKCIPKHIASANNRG

GSK-3 [6] = biological target: T7, GSK-3 (Leishmania donovani, UniProt A6N857); type: biochemical; settings: read-out: IC50 Leishmania donovani; calculated from dose-response curves
T7 sequence (A6N857 1-355): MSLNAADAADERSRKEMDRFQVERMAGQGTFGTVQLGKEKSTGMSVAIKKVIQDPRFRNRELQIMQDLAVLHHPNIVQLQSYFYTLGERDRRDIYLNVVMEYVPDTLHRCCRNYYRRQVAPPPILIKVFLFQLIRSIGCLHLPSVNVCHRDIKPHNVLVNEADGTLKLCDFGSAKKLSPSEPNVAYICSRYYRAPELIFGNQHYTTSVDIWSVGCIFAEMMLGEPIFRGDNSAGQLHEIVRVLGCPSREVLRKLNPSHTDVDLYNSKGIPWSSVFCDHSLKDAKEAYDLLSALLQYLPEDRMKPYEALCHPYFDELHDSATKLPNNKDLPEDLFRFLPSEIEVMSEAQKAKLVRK

GSK-3 [7] = biological target: T8, GSK-3 (Plasmodium knowlesi, UniProt A0A679KU36); type: biochemical; settings: read-out: IC50 Plasmodium knowlesi; calculated from dose-response curves
T8 sequence (A0A679KU36 1-473): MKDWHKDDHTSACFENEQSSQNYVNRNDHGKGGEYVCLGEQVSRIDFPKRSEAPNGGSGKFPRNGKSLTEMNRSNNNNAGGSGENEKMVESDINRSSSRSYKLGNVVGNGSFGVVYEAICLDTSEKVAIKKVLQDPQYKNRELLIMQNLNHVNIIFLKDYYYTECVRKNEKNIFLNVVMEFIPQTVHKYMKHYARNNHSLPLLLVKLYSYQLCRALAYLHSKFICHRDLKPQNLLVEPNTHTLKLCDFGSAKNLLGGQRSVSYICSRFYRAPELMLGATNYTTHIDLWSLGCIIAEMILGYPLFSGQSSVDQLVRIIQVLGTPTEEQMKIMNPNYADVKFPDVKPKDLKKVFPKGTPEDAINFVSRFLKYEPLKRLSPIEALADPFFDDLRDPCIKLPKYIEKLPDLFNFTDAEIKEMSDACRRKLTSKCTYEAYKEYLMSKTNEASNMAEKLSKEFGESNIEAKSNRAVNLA

GSK-3 [8] = biological target: T9, GSK-3 (Cryptosporidium parvum, UniProt A3FQN0); type: biochemical
T9 sequence (A3FQN0 1-433): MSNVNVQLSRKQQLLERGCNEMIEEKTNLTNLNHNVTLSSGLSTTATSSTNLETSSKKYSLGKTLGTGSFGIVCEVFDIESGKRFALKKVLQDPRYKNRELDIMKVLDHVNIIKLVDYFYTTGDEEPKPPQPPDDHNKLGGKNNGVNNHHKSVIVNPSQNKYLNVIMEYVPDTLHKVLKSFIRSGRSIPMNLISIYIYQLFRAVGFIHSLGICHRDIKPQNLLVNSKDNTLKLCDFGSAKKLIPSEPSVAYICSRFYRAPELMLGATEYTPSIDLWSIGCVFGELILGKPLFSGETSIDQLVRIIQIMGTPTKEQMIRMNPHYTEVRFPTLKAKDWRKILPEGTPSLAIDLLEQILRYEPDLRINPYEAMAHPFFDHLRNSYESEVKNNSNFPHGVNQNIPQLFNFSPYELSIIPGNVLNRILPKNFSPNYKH

With `N#Cc1c(N)nc2sc(C(=O)c3ccc(Cl)cc3)c(N)c2c1-c1ccccc1I` [Compound 1, 3,6-diamino-2-(4-chlorobenzoyl)-4-(2-iodophenyl)thieno[2,3-b]pyridine-5-carbonitrile] the pIC50 (GSK-3 [1]) was under 4.00, the pIC50 (GSK-3 [2]) was under 4.00 and the pIC50 (GSK-3 α/β) was under 4.00. It also gave a pIC50 (GSK-3 [3]) of 5.72, a pIC50 (GSK-3 α) of under 4.00 and a pIC50 (GSK-3 [4]) of under 4.00. For the same compound, the pIC50 (GSK-3 [5]) was under 4.00, the pIC50 (GSK-3 [6]) was 4.10 and the pIC50 (GSK-3 [7]) was 4.81. The pIC50 (GSK-3 [8]) was under 4.00.
